Experimental data taken from publication PMC6273431, “The Structure–Antimicrobial Activity Relationships of a Promising Class of the Compounds Containing the N-Arylpiperazine Scaffold” (Molecules, 2016).
Where two headings read alike, the source gives them in different places.

Legend:
[1] = system: Mycobacterium avium subsp. paratuberculosis CIT03; experiment: antimycobacterial MIC, MB broth, alamarBlue; assay type: cell-based; conditions: 264 h, read-out: MIC MAP
Procedure: The Mycobacterium avium subsp. paratuberculosis CIT03 strain was grown in the Middlebrook (MB) broth, supplemented with the Oleic-Albumin-Dextrose-Catalase Supplement (OADC, Becton Dickinson, Oxford, UK) and the mycobactin J (2 μg/mL). The commercially available siderophore mycobactin J reduced the incubation period of M. avium subsp. paratuberculosis in a complex medium when compared to the medium containing the mycobactin P as a growth factor.
The identification of the isolate was performed using biochemical and molecular protocols. At a log phase growth, a culture sample (10 mL) was centrifuged at 15,000 rpm/20 min using a bench top centrifuge (Model CR 4-12, Jouan Inc., London, UK). Following removal of the supernatant, the pellet was washed in fresh Middlebrook 7H9GC broth and re-suspended in fresh supplemented MB broth (10 mL). The turbidity was adjusted to match the McFarland standard No. 1 containing approximately 3.0 × 10^8 Colony Forming Units (CFU) with the MB broth. Further 1:20 dilution of the culture was performed in the MB broth. The susceptibility of given mycobacterial species was investigated in a 96-well plate format. In those experiments, sterile deionised water (300 μL) was added to all outer-perimeter wells of the plates to minimize an evaporation of the medium in the test wells during the incubation process. Each evaluated compound (100 μL) was incubated with the mycobacterial species (100 μL). The dilutions of a particular compound were prepared in triplicate. For all inspected derivatives, final concentrations ranged from 1000 μg/mL to 60 μg/mL. All compounds were prepared in dimethyl sulfoxide (DMSO; Sigma-Aldrich, Irvine, UK) and subsequent dilutions were made in the supplemented MB broth. The plates were sealed with a parafilm and incubated at 37 °C for 11 days. Following the incubation, a 10% addition of a water‑soluble dye, the alamarBlue reagent (AbD Serotec, Kidlington, UK), was mixed into each well. Absorbance readings at 570 nm and 600 nm were taken, initially for background subtraction and after 24 h re-incubation. The subtraction is necessary for strongly coloured compounds, where the colour may interfere with the interpretation of any colour change. For non-interfering compounds, a blue colour in a well was interpreted as an absence of a growth and a pink colour was scored as a growth.
The minimum inhibitory concentration (MIC) was defined as the lowest concentration of the compound at which no visible bacterial growth was observed. In other words, the MIC was the lowest concentration that prevented a visual colour change from blue to pink. The MIC value has been routinely and widely used in bacterial assays and it has been a standard detection limit according to the Clinical and Laboratory Standards Institute. The clinically used antimycobacterial drugs INH and RIF were applied as the standards.

M. marinum CAMP 5644 = experiment: antimycobacterial MIC, broth dilution micromethod; assay type: cell-based; conditions: Mycobacterium marinum, CAMP5644, 504 h, 21 days at 28 °C
[2] = set-up: method as in PMID 16209439, PMID 16209439; conditions: potentiometric titration; cited from earlier work
[3] = system: Candida albicans CCM 8261; experiment: candidacidal MIC, microdilution method; assay type: cell-based; conditions: Candida albicans, CCM8261, 48 h, 37 °C
Procedure: (§1) In order to provide a look into the potential usefulness of the derivatives 5a–l as the candidates for a development of anti-yeast (candidacidal) agents, they were in vitro tested against Candida albicans CCM 8261 (CA 8261), C. krusei CCM 8271 (CK 8271) and C. parapsilosis CCM 8260 (CP 8260). The yeasts were obtained from the Czech Collection of Microorganisms (Masaryk University, Faculty of Science, Brno, Czech Republic). They were grown and kept on Sabouraud agar (Oxoid Limited, Basingstoke, UK).
(§2) For the screening, the microdilution method according to the Antimicrobial Susceptibility Testing Protocols was applied. The inoculum was prepared from the cultures grown on Sabouraud agar. With the sterile solution of NaCl, the inoculum was prepared to the 0.5 McFarland units using the Densi-La-Meter densitometer (LIAP, Riga, Latvia) and diluted a thousand‑fold with the Roswell Park Memorial Institute (RPMI) 1640 medium (Sigma-Aldrich, Darmstadt, Germany). Prepared suspension was used for an inoculation of microtitre plates. Final concentration in wells ranged from 5.0 × 10^2 CFU/mL to 2.5 × 10^3 CFU/mL. […] For the determination of the MICs, the stock solutions of all the tested compounds were diluted in the microtitre checkerboard to the final concentration varying from 128 μg/mL to 0.125 μg/mL. Drug-free control, sterility control and the control consisted of a medium and DMSO alone were included. Inoculated microtitre plates were incubated for 48 h in the darkness at 37 °C in an aerobic atmosphere. The results were estimated against static light.
(§3) The MIC was defined as the lowest concentration of the tested compound at which no visible growth was observed. To ensure reproducibility of the results, each candidacidal MIC assay was performed triplicate on separate occasions. It was important to note that all the MICs from the in vitro antimicrobial screening were expressed in μg/mL units and were available in Tables S3 and S4 (Supplementary Materials).

Candida krusei CCM 8271 = experiment: candidacidal MIC, microdilution method; assay type: cell-based; conditions: Pichia kudriavzevii, CCM8271, 48 h, 37 °C
Procedure: as §1, §2, §3

[4] = system: Candida parapsilosis CCM 8260; experiment: candidacidal MIC, microdilution method; assay type: cell-based; conditions: Lodderomyces parapsilosis, CCM8260, 48 h, 37 °C
Procedure: as §1, §2, §3

[5] = system: Enterococcus faecalis ATCC 29212; experiment: antibacterial MIC, microtitration broth method; assay type: cell-based; conditions: 37 °C
Procedure: (§4) Prior to the testing, each strain was transferred into a nutrient agar (Oxoid Limited, Basingstoke, UK), which was enriched with 5% defibrinated bovine blood.
(§5) The MICs were determined by the microtitration broth method in the cation-adjusted Mueller-Hinton broth (Becton Dickinson, Oxford, UK) according to an international interdisciplinary Clinical Laboratory Standard Institute guidelines.
(§6) The checkerboard was inoculated by the bacterial inocula, which were prepared in a phosphate buffered saline solution with the pH = 7.2–7.3 to simulate physiological pH. The final concentration of each inoculum in the final volume of 100 μL in the wells was approximately 7.5 × 10^6 CFU/mL. Drug-free controls, sterility controls and the controls consisted of the broth with DMSO were included. The determination of the results was performed visually after 24 h of static incubation in the darkness at 37 °C in an aerobic atmosphere.
(§7) To ensure reproducibility, each antibacterial MIC assay was performed triplicate on separate occasions.

[6] = system: Staphylococcus aureus ATCC 29213; experiment: antibacterial MIC, microtitration broth method; assay type: cell-based; conditions: 37 °C
Procedure: as §4, §5, §6, §7

[7] = system: Escherichia coli ATCC 25922; experiment: antibacterial MIC, microtitration broth method; assay type: cell-based; conditions: 37 °C
Procedure: as §4, §5, §6, §7

[8] = system: methicillin-resistant Staphylococcus aureus 63718; experiment: antibacterial MIC, microtitration broth method; assay type: cell-based; conditions: MRSA, 37 °C
Procedure: as §4, §5, §6, §7

M. smegmatis ATCC 700084 = experiment: antimycobacterial MIC, broth dilution micromethod; assay type: cell-based; conditions: Mycolicibacterium smegmatis, ATCC700084, 72 h, 3 days at 37 °C
M. kansasii DSM 44162 = experiment: antimycobacterial MIC, broth dilution micromethod; assay type: cell-based; conditions: Mycobacterium kansasii, DSM44162, 168 h, 7 days at 37 °C
[9] = set-up: method as in PMID 16209439, PMID 16209439, doi:10.2478/s11696-006-0007-y; conditions: octan-1-ol/phosphate buffer (pH = 7.4); cited from earlier work

| SMILES | MIC ([1]; 37 °C, 11 days) [µM] | MIC [1] [µg/mL] | MIC (M. marinum CAMP 5644) [µM] | MIC (M. marinum CAMP 5644; Table S3) [µg/mL] | pKa [2] | MIC [3] [µM] | MIC ([3]; Table S4) [µg/mL] | MIC (Candida krusei CCM 8271) [µM] | MIC (Candida krusei CCM 8271; Table S4) [µg/mL] | MIC [4] [µM] | MIC ([4]; Table S4) [µg/mL] | MIC ([5]; ATCC29212, 24 h) [µM] | MIC ([5]; ATCC29212, Table S4, 24 h) [µg/mL] | MIC ([6]; ATCC29213, 24 h) [µM] | MIC ([6]; ATCC29213, Table S4, 24 h) [µg/mL] | MIC ([7]; ATCC25922, 24 h) [µM] | MIC ([7]; ATCC25922, Table S4, 24 h) [µg/mL] | MIC ([8]; 24 h) [µM] | MIC ([8]; Table S4, 24 h) [µg/mL] | MIC (M. smegmatis ATCC 700084) [µM] | also measured |
| --- | --- | --- | --- | --- | --- | --- | --- | --- | --- | --- | --- | --- | --- | --- | --- | --- | --- | --- | --- | --- | --- |
| COc1cccc(NC(=O)OCC(O)CN2CCN(c3cccc(C(F)(F)F)c3)CC2)c1 (stereo not drawn) [Compound 5c] | 1020 | 500 | 131 | 64 | 5.73 | > 261 | > 128 | > 261 | > 128 | > 261 | > 128 | > 523 | > 256 | > 523 | > 256 | > 523 | > 256 | > 523 | > 256 | 523 | MIC (M. smegmatis ATCC 700084; Table S3): 256 µg/mL; MIC (M. kansasii DSM 44162): 131 µM; MIC (M. kansasii DSM 44162; Table S3): 64 µg/mL; log Pexp [9]: 3.61 |
| CCOc1ccccc1NC(=O)OCC(O)CN1CCN(c2cccc(C(F)(F)F)c2)CC1 (stereo not drawn) [Compound 5b] | 1980 | 1000 | 127 | 64 | 6.00 | > 254 | > 128 | > 254 | > 128 | > 254 | > 128 | > 508 | > 256 | > 508 | > 256 | > 508 | > 256 | > 508 | > 256 | 508 | MIC (M. smegmatis ATCC 700084; Table S3): 256 µg/mL; MIC (M. kansasii DSM 44162): 127 µM; MIC (M. kansasii DSM 44162; Table S3): 64 µg/mL; log Pexp [9]: 3.60 |
| COc1ccccc1NC(=O)OCC(O)CN1CCN(c2cccc(C(F)(F)F)c2)CC1 (stereo not drawn) [Compound 5a] | 510 | 250 | 131 | 64 | 5.83 | > 261 | > 128 | > 261 | > 128 | > 261 | > 128 | > 523 | > 256 | > 523 | > 256 | > 523 | > 256 | > 523 | > 256 | 523 | MIC (M. smegmatis ATCC 700084; Table S3): 256 µg/mL; MIC (M. kansasii DSM 44162): 131 µM; MIC (M. kansasii DSM 44162; Table S3): 64 µg/mL; log Pexp [9]: 3.57 |
